{"source": "patent US10131652B2", "about": "“Pyrimidinyloxy benzene derivatives as herbicides” (E. I. DU PONT DE NEMOURS AND COMPANY, priority 2014, dated 2018)", "assay_in_all_cases": "Test D pre-/postemergence plant response", "type_in_all_cases": "in vivo", "key": {"[1]": {"tested_on": "blackgrass (Alopecurus myosuroides)", "conditions": "Alopecurus myosuroides; for pest or weed control at 31 g/ha: 31 g ai/ha; for pest or weed control at 62 g/ha: 62 g ai/ha; for pest or weed control at 125 g/ha: 125 g ai/ha; for pest or weed control at 250 g/ha: 250 g ai/ha", "from_the_text": "(§1) Seeds of plant species selected from blackgrass (Alopecurus myosuroides), Italian ryegrass (Lolium multiflorum), winter wheat (Triticum aestivum), galium (catchweed bedstraw, Galium aparine), corn (Zea mays), large (Lg) crabgrass (Digitaria sanguinalis), giant foxtail (Setaria faberii), johnsongrass (Sorghum halepense), lambsquarters (Chenopodium album), morningglory (Ipomoea coccinea), yellow nutsedge (Cyperus esculentus), pigweed (Amaranthus retroflexus), ragweed (common ragweed, Ambrosia elatior), soybean (Glycine max), bamyardgrass (Echinochloa crus-galli), oilseed rape (Brassica napus), waterhemp (common waterhemp, Amaranthus rudis), and velvetleaf (Abutilon theophrasti) were planted into a blend of loam soil and sand and treated preemergence with test chemicals formulated in a non-phytotoxic solvent mixture which included a surfactant. At the same time, plants selected from these crop and weed species and also kochia (Kochia scoparia), wild oat (Avena fatua), and chickweed (common chickweed, Stellaria media) were planted in pots containing Redi-Earth® planting medium (Scotts Company, 14111 Scottslawn Road, Marysville, Ohio 43041) comprising spaghnum peat moss, vermiculite, wetting agent and starter nutrients and treated with postemergence applications of test chemicals formulated in the same manner. Plants ranged in height from 2 to 18 cm (1- to 4-leaf stage) for postemergence treatments. Treated plants and controls were maintained in a greenhouse for 13 to 15 days, after which time all species were compared to controls and visually evaluated. Plant response ratings, summarized in Table D, are based on a scale of 0 to 100 where 0 is no effect and 100 is complete control. A dash (-) response means no test result."}, "[2]": {"tested_on": "ragweed (common ragweed, Ambrosia elatior)", "conditions": "Ambrosia artemisiifolia; for pest or weed control at 31 g/ha: 31 g ai/ha; for pest or weed control at 62 g/ha: 62 g ai/ha; for pest or weed control at 125 g/ha: 125 g ai/ha; for pest or weed control at 250 g/ha: 250 g ai/ha", "from_the_text": "as §1"}, "[3]": {"tested_on": "winter wheat (Triticum aestivum)", "conditions": "Triticum aestivum; for plant injury at 31 g/ha: 31 g ai/ha; for plant injury at 62 g/ha: 62 g ai/ha; for plant injury at 125 g/ha: 125 g ai/ha; for plant injury at 250 g/ha: 250 g ai/ha", "from_the_text": "as §1"}, "[4]": {"tested_on": "large (Lg) crabgrass (Digitaria sanguinalis)", "conditions": "Digitaria sanguinalis; for pest or weed control at 31 g/ha: 31 g ai/ha; for pest or weed control at 62 g/ha: 62 g ai/ha; for pest or weed control at 125 g/ha: 125 g ai/ha; for pest or weed control at 250 g/ha: 250 g ai/ha", "from_the_text": "as §1"}, "[5]": {"tested_on": "Italian ryegrass (Lolium multiflorum)", "conditions": "Lolium multiflorum, post-emergence, Postemergence", "from_the_text": "as §1"}, "[6]": {"conditions": "post-emergence, Postemergence, scale 0 to 100, 0 no effect, 100 complete control, read-out: Plant response rating, Blackgrass"}, "[7]": {"conditions": "pre-emergence, Preemergence, read-out: Plant response rating (scale 0 to 100), Blackgrass"}, "[8]": {"conditions": "pre-emergence, Preemergence, scale 0 to 100 (0 no effect, 100 complete control), read-out: Plant response rating, Blackgrass"}, "[9]": {"conditions": "post-emergence, Postemergence, scale 0 to 100, 0 no effect, 100 complete control, read-out: Plant response rating, Ragweed"}, "[10]": {"conditions": "pre-emergence, Preemergence, read-out: Plant response rating (scale 0 to 100), Ragweed"}, "[11]": {"conditions": "pre-emergence, Preemergence, scale 0 to 100 (0 no effect, 100 complete control), read-out: Plant response rating, Ragweed"}, "[12]": {"conditions": "post-emergence, Postemergence, scale 0 to 100, 0 no effect, 100 complete control, read-out: Plant response rating, Wheat"}, "[13]": {"conditions": "pre-emergence, Preemergence, read-out: Plant response rating (scale 0 to 100), Wheat"}, "[14]": {"conditions": "pre-emergence, Preemergence, scale 0 to 100 (0 no effect, 100 complete control), read-out: Plant response rating, Wheat"}, "[15]": {"conditions": "post-emergence, Postemergence, scale 0 to 100, 0 no effect, 100 complete control, read-out: Plant response rating, Crabgrass, Large"}, "[16]": {"conditions": "pre-emergence, Preemergence, read-out: Plant response rating (scale 0 to 100), Crabgrass, Large"}, "[17]": {"conditions": "pre-emergence, Preemergence, scale 0 to 100 (0 no effect, 100 complete control), read-out: Plant response rating, Crabgrass, Large"}}, "note": "Where two headings read alike, the source gives them in different places.", "data": [{"smiles": "FC(F)c1cc(-c2ccccc2Oc2ncc(Br)cn2)no1", "note": "[Compound 62, 5-bromo-2-[2-[5-(difluoromethyl)-3-isoxazolyl]phenoxy]pyrimidine]", "values": [{"measurement": "pest or weed control at 31 g/ha", "setting": "[1]; post-emergence, Postemergence, scale 0 to 100 (0 no effect, 100 complete control), read-out: Blackgrass plant response rating", "value": 20, "unit": "%"}, {"measurement": "pest or weed control at 62 g/ha", "setting": "[1]; [6]", "value": 25, "unit": "%"}, {"measurement": "pest or weed control at 125 g/ha", "setting": "[1]; [6]", "value": 40, "unit": "%"}, {"measurement": "pest or weed control at 250 g/ha", "setting": "[1]; [6]", "value": 60, "unit": "%"}, {"measurement": "pest or weed control at 125 g/ha", "setting": "[1]; [7]", "value": 90, "unit": "%"}, {"measurement": "pest or weed control at 250 g/ha", "setting": "[1]; [7]", "value": 90, "unit": "%"}, {"measurement": "pest or weed control at 31 g/ha", "setting": "[1]; [8]", "value": 5, "unit": "%"}, {"measurement": "pest or weed control at 62 g/ha", "setting": "[1]; [8]", "value": 90, "unit": "%"}, {"measurement": "pest or weed control at 31 g/ha", "setting": "[2]; post-emergence, Postemergence, scale 0 to 100 (0 no effect, 100 complete control), read-out: Ragweed plant response rating", "value": 65, "unit": "%"}, {"measurement": "pest or weed control at 62 g/ha", "setting": "[2]; [9]", "value": 60, "unit": "%"}, {"measurement": "pest or weed control at 125 g/ha", "setting": "[2]; [9]", "value": 65, "unit": "%"}, {"measurement": "pest or weed control at 250 g/ha", "setting": "[2]; [9]", "value": 85, "unit": "%"}, {"measurement": "pest or weed control at 125 g/ha", "setting": "[2]; [10]", "value": 75, "unit": "%"}, {"measurement": "pest or weed control at 250 g/ha", "setting": "[2]; [10]", "value": 85, "unit": "%"}, {"measurement": "pest or weed control at 31 g/ha", "setting": "[2]; [11]", "value": 0, "unit": "%"}, {"measurement": "pest or weed control at 62 g/ha", "setting": "[2]; [11]", "value": 65, "unit": "%"}, {"measurement": "plant injury at 31 g/ha", "setting": "[3]; post-emergence, Postemergence, scale 0 to 100 (0 no effect, 100 complete control), read-out: Wheat plant response rating", "value": 30, "unit": "%"}, {"measurement": "plant injury at 62 g/ha", "setting": "[3]; [12]", "value": 20, "unit": "%"}, {"measurement": "plant injury at 125 g/ha", "setting": "[3]; [12]", "value": 10, "unit": "%"}, {"measurement": "plant injury at 250 g/ha", "setting": "[3]; [12]", "value": 40, "unit": "%"}, {"measurement": "plant injury at 125 g/ha", "setting": "[3]; [13]", "value": 40, "unit": "%"}, {"measurement": "plant injury at 250 g/ha", "setting": "[3]; [13]", "value": 50, "unit": "%"}, {"measurement": "plant injury at 31 g/ha", "setting": "[3]; [14]", "value": 0, "unit": "%"}, {"measurement": "plant injury at 62 g/ha", "setting": "[3]; [14]", "value": 10, "unit": "%"}, {"measurement": "pest or weed control at 31 g/ha", "setting": "[4]; post-emergence, Postemergence, scale 0 to 100 (0 no effect, 100 complete control), read-out: Crabgrass, Large plant response rating", "value": 55, "unit": "%"}, {"measurement": "pest or weed control at 62 g/ha", "setting": "[4]; [15]", "value": 35, "unit": "%"}, {"measurement": "pest or weed control at 125 g/ha", "setting": "[4]; [15]", "value": 50, "unit": "%"}, {"measurement": "pest or weed control at 250 g/ha", "setting": "[4]; [15]", "value": 65, "unit": "%"}, {"measurement": "pest or weed control at 125 g/ha", "setting": "[4]; [16]", "value": 100, "unit": "%"}, {"measurement": "pest or weed control at 250 g/ha", "setting": "[4]; [16]", "value": 100, "unit": "%"}, {"measurement": "pest or weed control at 31 g/ha", "setting": "[4]; [17]", "value": 95, "unit": "%"}, {"measurement": "pest or weed control at 62 g/ha", "setting": "[4]; [17]", "value": 100, "unit": "%"}, {"measurement": "pest or weed control at 31 g/ha", "setting": "[5]; 31 g ai/ha, scale 0 to 100 (0 no effect, 100 complete control), read-out: Ryegrass, Italian plant response rating", "value": 5, "unit": "%"}, {"measurement": "pest or weed control at 62 g/ha", "setting": "[5]; 62 g ai/ha, scale 0 to 100, 0 no effect, 100 complete control, read-out: Plant response rating, Ryegrass, Italian", "value": 5, "unit": "%"}, {"measurement": "pest or weed control at 125 g/ha", "setting": "[5]; 125 g ai/ha, scale 0 to 100, 0 no effect, 100 complete control, read-out: Plant response rating, Ryegrass, Italian", "value": 30, "unit": "%"}, {"measurement": "pest or weed control at 250 g/ha", "setting": "[5]; 250 g ai/ha, scale 0 to 100, 0 no effect, 100 complete control, read-out: Plant response rating, Ryegrass, Italian", "value": 40, "unit": "%"}]}]}
